Test results from patent US20180244611A1, “Modulators of the Cystic Fibrosis Transmembrane Conductance Regulator Protein and Methods of Use” (AbbVie S.à.r.l., priority 2017, published 2018).

Legend:
F508delCFTR [1] = target: T1, F508delCFTR (Homo sapiens, UniProt P13569, DEL508-508); assay: Cell Surface Expression-Horse Radish Peroxidase (CSE-HRP) assay, test compound without co-corrector; format: cell-based; settings: for Emax: maximum at any tested concentration, normalized to positive control, without co-corrector; for EC50: test compound without co-corrector;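 as to Emax: percent of on-plate 2 µM positive control corrector response over DMSO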
T1 construct: expressed in transfected cells; host or cells: CFBE41o- human lung-derived epithelial cells (CFBE41o-F508delCFTR-HRP), doxycycline-inducible
T1 sequence (P13569 with tags, fused parts or gaps DEL508-508): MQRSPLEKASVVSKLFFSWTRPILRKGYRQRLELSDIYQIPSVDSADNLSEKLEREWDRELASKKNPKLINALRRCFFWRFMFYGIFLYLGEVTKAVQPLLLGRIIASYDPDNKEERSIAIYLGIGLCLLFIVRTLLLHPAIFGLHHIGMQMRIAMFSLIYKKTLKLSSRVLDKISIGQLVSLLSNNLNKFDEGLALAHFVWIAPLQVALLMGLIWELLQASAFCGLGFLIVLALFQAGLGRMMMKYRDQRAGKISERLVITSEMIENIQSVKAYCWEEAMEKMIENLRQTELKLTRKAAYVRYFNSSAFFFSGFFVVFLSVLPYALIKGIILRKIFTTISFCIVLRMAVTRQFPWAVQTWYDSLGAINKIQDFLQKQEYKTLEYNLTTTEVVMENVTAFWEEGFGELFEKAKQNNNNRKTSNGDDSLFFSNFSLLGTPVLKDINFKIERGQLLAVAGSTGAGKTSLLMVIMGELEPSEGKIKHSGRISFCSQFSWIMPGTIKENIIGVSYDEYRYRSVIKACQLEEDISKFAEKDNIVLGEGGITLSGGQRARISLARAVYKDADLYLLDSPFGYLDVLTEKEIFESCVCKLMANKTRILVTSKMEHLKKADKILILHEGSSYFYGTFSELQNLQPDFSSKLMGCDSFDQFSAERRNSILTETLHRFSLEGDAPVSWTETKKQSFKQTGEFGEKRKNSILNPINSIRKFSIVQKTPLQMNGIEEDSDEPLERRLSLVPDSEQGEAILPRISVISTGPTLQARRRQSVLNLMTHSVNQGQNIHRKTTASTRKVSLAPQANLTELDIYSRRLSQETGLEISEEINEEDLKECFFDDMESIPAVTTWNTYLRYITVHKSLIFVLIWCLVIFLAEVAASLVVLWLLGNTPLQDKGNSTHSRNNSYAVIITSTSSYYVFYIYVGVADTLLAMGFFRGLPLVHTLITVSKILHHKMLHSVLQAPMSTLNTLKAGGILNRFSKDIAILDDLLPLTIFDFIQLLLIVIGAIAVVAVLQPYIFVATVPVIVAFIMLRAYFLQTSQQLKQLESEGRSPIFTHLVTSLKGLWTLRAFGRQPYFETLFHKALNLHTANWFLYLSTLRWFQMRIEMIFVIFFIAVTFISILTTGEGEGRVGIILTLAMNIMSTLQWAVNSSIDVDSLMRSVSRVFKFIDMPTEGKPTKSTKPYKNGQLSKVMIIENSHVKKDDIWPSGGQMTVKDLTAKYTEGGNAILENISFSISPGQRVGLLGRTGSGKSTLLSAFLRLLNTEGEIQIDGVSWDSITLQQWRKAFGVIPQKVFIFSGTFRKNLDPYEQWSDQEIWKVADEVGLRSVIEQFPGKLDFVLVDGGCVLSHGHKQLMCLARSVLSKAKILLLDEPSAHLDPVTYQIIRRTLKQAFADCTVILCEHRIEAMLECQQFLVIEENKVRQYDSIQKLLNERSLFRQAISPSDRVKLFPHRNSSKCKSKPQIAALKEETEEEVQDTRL
Method in brief: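 Compound without co-corrector was tested at eight 3-fold concentrations, top 20 μM, for 18-24 h at 33° C on doxycycline-induced (0.5 μg/mL, 72 h) CFBE41o- F508delCFTR-HRP cells. After DPBS washes, luminol luminescence gave % activity relative to on-plate positive control minus DMSO; EC50 came from triplicate-plate sigmoidal fitting.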

F508delCFTR [2] = target: T1, F508delCFTR; assay: Cell Surface Expression-Horse Radish Peroxidase (CSE-HRP) assay, test compound with co-corrector; format: cell-based; settings: with 2 μM co-corrector; for Maximum % activity (with co-corrector): maximum at any tested concentration, normalized to positive control;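 as to Maximum % activity (with co-corrector): percent of 2 µM positive control corrector over DMSO; co-corrector is that same compound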
Method in brief: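 Surface-expression read-out: luminol luminescence from an HRP tag in the fourth exofacial loop of F508delCFTR, in doxycycline-induced (0.5 μg/mL, 72 h) CFBE41o- cells. Compound plus 2 μM co-corrector added for 18-24 h at 33° C., 8-point 3-fold series up to 20 μM. EC50 from a sigmoidal fit with variable Hill slope, normalised to positive control, triplicate plates.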

Structure (SMILES) | Emax (F508delCFTR [1]) | EC50 (F508delCFTR [1]) | Maximum % activity (with co-corrector) (F508delCFTR [2]) | EC50 (F508delCFTR [2])
COc1ccc(Br)c2c1C(C(=O)NS(=O)(=O)c1cccc3ncccc13)CCC2 (centres unmarked) [Example I-50, 5-bromo-8-methoxy-N-(quinoline-5-sulfonyl)-1,2,3,4-tetrahydronaphthalene-1-carboxamide] | ≥ 150% | < 3 µM | +++ (≥350) | < 3 µM
COc1ccc(Br)c2c1[C@@H](C(=O)NS(=O)(=O)c1cccc3ccccc13)CC2 [Example I-51, (1S)-4-bromo-7-methoxy-N-(naphthalene-1-sulfonyl)-2,3-dihydro-1H-indene-1-carboxamide] | 50 to 150% | 3 to 10 µM | ++ (≥150 and <350) | 3 to 10 µM
COc1ccc(Br)c2c1[C@H](C(=O)NS(=O)(=O)c1cccc3ccccc13)CC2 [Example I-52, (1R)-4-bromo-7-methoxy-N-(naphthalene-1-sulfonyl)-2,3-dihydro-1H-indene-1-carboxamide] | ≥ 150% | < 3 µM | +++ (≥350) | < 3 µM
CCOc1ccc(Br)c2c1C(C(=O)NS(=O)(=O)c1cccc3ccccc13)CC2 (centres unmarked) [Example I-53, 4-bromo-7-ethoxy-N-(naphthalene-1-sulfonyl)-2,3-dihydro-1H-indene-1-carboxamide] | ≥ 150% | < 3 µM | +++ (≥350) | < 3 µM
CC(C)Oc1ccc(Br)c2c1C(C(=O)NS(=O)(=O)c1cccc3ccccc13)CC2 (centres unmarked) [Example I-54] | ≥ 150% | 3 to 10 µM | +++ (≥350) | < 3 µM
O=C(NS(=O)(=O)c1cccc2ccccc12)C1CCc2c(Br)ccc(OCC3CC3)c21 (centres unmarked) [Example I-55, 4-bromo-7-(cyclopropylmethoxy)-N-(naphthalene-1-sulfonyl)-2,3-dihydro-1H-indene-1-carboxamide] | ≥ 150% | < 3 µM | +++ (≥350) | < 3 µM
COc1ccc(Br)c2c1CCCC2C(=O)NS(=O)(=O)c1cccc2ncccc12 (centres unmarked) [Example I-56, 8-bromo-5-methoxy-N-(quinoline-5-sulfonyl)-1,2,3,4-tetrahydronaphthalene-1-carboxamide] | ≥ 150% | < 3 µM | +++ (≥350) | < 3 µM
COc1ccc(-c2ccc(C)cc2)c2c1CCCC2C(=O)NS(=O)(=O)c1cccc2ccccc12 (centres unmarked) [Example I-57, 5-methoxy-8-(4-methylphenyl)-N-(naphthalene-1-sulfonyl)-1,2,3,4-tetrahydronaphthalene-1-carboxamide] | ≥ 150% | < 3 µM | +++ (≥350) | < 3 µM
O=C(NS(=O)(=O)c1cccc2ccccc12)C1CCc2c(Br)ccc(OC(F)F)c21 (centres unmarked) [Example I-58, 4-bromo-7-(difluoromethoxy)-N-(naphthalene-1-sulfonyl)-2,3-dihydro-1H-indene-1-carboxamide] | ≥ 150% | < 3 µM | +++ (≥350) | < 3 µM
COc1ccc(Cl)c2c1C(C(=O)NS(=O)(=O)c1cccc3ccccc13)CC2 (centres unmarked) [Example I-59, 4-chloro-7-methoxy-N-(naphthalene-1-sulfonyl)-2,3-dihydro-1H-indene-1-carboxamide] | ≥ 150% | 3 to 10 µM | +++ (≥350) | < 3 µM
COc1ccc(C2CCC2)c2c1CCC[C@@H]2C(=O)NS(=O)(=O)c1cccc2ccccc12 [Example I-60, (1S)-8-cyclobutyl-5-methoxy-N-(naphthalene-1-sulfonyl)-1,2,3,4-tetrahydronaphthalene-1-carboxamide] | ≥ 150% | < 3 µM | +++ (≥350) | < 3 µM
COc1ccc(C2CCC2)c2c1CCC[C@H]2C(=O)NS(=O)(=O)c1cccc2ccccc12 [Example I-61, (1R)-8-cyclobutyl-5-methoxy-N-(naphthalene-1-sulfonyl)-1,2,3,4-tetrahydronaphthalene-1-carboxamide] | ≥ 150% | < 3 µM | +++ (≥350) | < 3 µM
CC[C@]1(C(=O)NS(=O)(=O)c2cccc3ccccc23)CCCc2cccc(Cl)c21 [Example I-64, (1S)-8-chloro-1-ethyl-N-(naphthalene-1-sulfonyl)-1,2,3,4-tetrahydronaphthalene-1-carboxamide] | ≥ 150% | < 3 µM | +++ (≥350) | < 3 µM
CC[C@@]1(C(=O)NS(=O)(=O)c2cccc3ccccc23)CCCc2cccc(Cl)c21 [Example I-65, (1R)-8-chloro-1-ethyl-N-(naphthalene-1-sulfonyl)-1,2,3,4-tetrahydronaphthalene-1-carboxamide] | ≥ 150% | < 3 µM | +++ (≥350) | < 3 µM
CCC1(C(=O)NS(=O)(=O)c2cccc3ccn(C)c23)CCc2c(Cl)cccc21 (centres unmarked) [Example I-66, 4-chloro-1-ethyl-N-(1-methyl-1H-indole-7-sulfonyl)-2,3-dihydro-1H-indene-1-carboxamide] | ≥ 150% | < 3 µM | +++ (≥350) | < 3 µM
COc1ccc(CC(C)C)c2c1CCCC2C(=O)NS(=O)(=O)c1cccc2ccccc12 (centres unmarked) [Example I-67, 5-methoxy-8-(2-methylpropyl)-N-(naphthalene-1-sulfonyl)-1,2,3,4-tetrahydronaphthalene-1-carboxamide] | ≥ 150% | < 3 µM | +++ (≥350) | < 3 µM
COc1ccc(CC(C)C)c2c1C(C(=O)NS(=O)(=O)c1cccc3ccccc13)CCC2 (centres unmarked) [Example I-68, 8-methoxy-5-(2-methylpropyl)-N-(naphthalene-1-sulfonyl)-1,2,3,4-tetrahydronaphthalene-1-carboxamide] | ≥ 150% | < 3 µM | +++ (≥350) | < 3 µM
COc1ccc(C2CCC2)c2c1C(C(=O)NS(=O)(=O)c1cccc3ccccc13)CCC2 (centres unmarked) [Example I-69, 5-cyclobutyl-8-methoxy-N-(naphthalene-1-sulfonyl)-1,2,3,4-tetrahydronaphthalene-1-carboxamide] | ≥ 150% | < 3 µM | +++ (≥350) | < 3 µM
COc1ccc(Cl)c2c1C(C(=O)NS(=O)(=O)c1cccc3ccccc13)CCC2 (centres unmarked) [Example I-70, 5-chloro-8-methoxy-N-(naphthalene-1-sulfonyl)-1,2,3,4-tetrahydronaphthalene-1-carboxamide] | ≥ 150% | < 3 µM | +++ (≥350) | < 3 µM
COc1ccc(Cl)c2c1[C@@H](C(=O)NS(=O)(=O)c1cccc3ccccc13)CC2 [Example I-71, (1S)-4-chloro-7-methoxy-N-(naphthalene-1-sulfonyl)-2,3-dihydro-1H-indene-1-carboxamide] | 50 to 150% | 3 to 10 µM | ++ (≥150 and <350) | 3 to 10 µM
COc1ccc(Cl)c2c1[C@H](C(=O)NS(=O)(=O)c1cccc3ccccc13)CC2 [Example I-72, (1R)-4-chloro-7-methoxy-N-(naphthalene-1-sulfonyl)-2,3-dihydro-1H-indene-1-carboxamide] | ≥ 150% | 3 to 10 µM | +++ (≥350) | < 3 µM
COc1ccc(OC)c2c1CCCC2C(=O)NS(=O)(=O)c1cccc2ccccc12 (centres unmarked) [Example I-73, 5,8-dimethoxy-N-(naphthalene-1-sulfonyl)-1,2,3,4-tetrahydronaphthalene-1-carboxamide] | ≥ 150% | 3 to 10 µM | +++ (≥350) | < 3 µM
CCC1(C(=O)NS(=O)(=O)c2cccc3c2ccn3C)CCc2c(Cl)cccc21 (centres unmarked) [Example I-74, 4-chloro-1-ethyl-N-(1-methyl-1H-indole-4-sulfonyl)-2,3-dihydro-1H-indene-1-carboxamide] | ≥ 150% | 3 to 10 µM | +++ (≥350) | < 3 µM
COc1ccc(C)c2c1C(C(=O)NS(=O)(=O)c1cccc3ccccc13)CC2 (centres unmarked) [Example I-75, 7-methoxy-4-methyl-N-(naphthalene-1-sulfonyl)-2,3-dihydro-1H-indene-1-carboxamide] | ≥ 150% | < 3 µM | +++ (≥350) | < 3 µM
COc1ccc(C2CCC2)c2c1C(C(=O)NS(=O)(=O)c1cccc3ccccc13)CC2 (centres unmarked) [Example I-76, 4-cyclobutyl-7-methoxy-N-(naphthalene-1-sulfonyl)-2,3-dihydro-1H-indene-1-carboxamide] | ≥ 150% | 3 to 10 µM | +++ (≥350) | < 3 µM
COc1ccc(C2CCC2)c2c1C(C(=O)NS(=O)(=O)c1cccc3ncccc13)CC2 (centres unmarked) [Example I-77, 4-cyclobutyl-7-methoxy-N-(quinoline-5-sulfonyl)-2,3-dihydro-1H-indene-1-carboxamide] | ≥ 150% | 3 to 10 µM | +++ (≥350) | < 3 µM
